Experimental data reported in patent US12102089B2, “Method for inactivating mold spores” (DSM IP ASSETS B.V., priority 2017, dated 2024).

Legend:
[1] = system: Taleromyces macrosporus CBS 130.89; settings: 2.5 ppm natamycin, heat treatment, apple juice; cited from earlier work
[2] = system: Paecilomyces variotti (ATCC 22319); assay: Heat treatment of Paecilomyces variotti spores in ice tea with natamycin, visual growth; format: cell-based; set-up: key to growth (+) or no growth (−): growth (+); no growth (−)
Method: Commercially available ice tea (Lipton, peach flavor, non-carbonated, 1.5 L) was adjusted to high water hardness by adding 1 ml of a solution of 39 g CaCl2 and 27 g MgCl2 added to 934 g water. ⅓ of this ice tea preparation (the pH of which was 3.15) was left as-such, ⅓ of the preparation was enriched with 5 ppm natamycin and ⅓ of the preparation was enriched with 10 ppm natamycin. Samples of 5 ml were made from each preparation in 15 ml sterile plastic tubes. Of each preparation 8 samples were pre-heated to the desired pasteurization temperature using a water bath. Temperatures used were RT, 60, 65, 70, 75, 80, 85 and 90° C. When the desired temperature was reached, 100 μl of a 2500 spores/ml spore suspension of Aspergillus niger ATCC 9029AA was added to each tube. Subsequently, the samples were kept for 30 seconds at the temperature in question in the water bath. Next, the samples were cooled on ice to a temperature of 25° C. Samples were incubated at 25° C. and visually examined for growth (formation of mold flakes or turbidity) for two months. Additionally, samples were enumerated according to ISO protocol 21527-1.2008 on day 0 (before heat treatment) and day 1 (after heat treatment) to count immediate loss of viability. […] For the results, see Table 1. […] Example 1 was repeated however with Paecilomyces variotti (ATCC 22319, 1000 spores/ml) instead of Aspergillus niger.

Q: Which results are given for `C[C@@H]1C/C=C/C=C/C=C/C=C/[C@H](O[C@@H]2O[C@H](C)[C@@H](O)[C@H](N)[C@@H]2O)C[C@@H]2O[C@](O)(C[C@@H](O)C[C@H]3O[C@@H]3/C=C/C(=O)O1)C[C@H](O)[C@H]2C(=O)O` [natamycin]?
A: duration of prevention of germination [1]: 4 days; germination ([2]; 90° C., in the presence of natamycin): no germination occurred; germination ([2]; RT and 60° C., 5 or 10 ppm natamycin): delayed germination; growth (+) or no growth (−) ([2]; T 60, natamycin 5 ppm, day 1): −; growth (+) or no growth (−) ([2]; T 60, natamycin 5 ppm, day 2): −; growth (+) or no growth (−) ([2]; T 60, natamycin 5 ppm, day 3): −; growth (+) or no growth (−) ([2]; T 60, natamycin 5 ppm, day 4): −; growth (+) or no growth (−) ([2]; T 60, natamycin 5 ppm, day 5): −; growth (+) or no growth (−) ([2]; T 60, natamycin 5 ppm, day 6): −; growth (+) or no growth (−) ([2]; T 60, natamycin 5 ppm, day 7): −; growth (+) or no growth (−) ([2]; T 60, natamycin 5 ppm, day 8): −; growth (+) or no growth (−) ([2]; T 60, natamycin 5 ppm, day 9): −; growth (+) or no growth (−) ([2]; T 60, natamycin 5 ppm, day 10): +; growth (+) or no growth (−) ([2]; T 60, natamycin 5 ppm, day 11): +; growth (+) or no growth (−) ([2]; T 60, natamycin 5 ppm, day 12): +; growth (+) or no growth (−) ([2]; T 60, natamycin 5 ppm, day 13): +; growth (+) or no growth (−) ([2]; T 60, natamycin 5 ppm, day 14): +; growth (+) or no growth (−) ([2]; T 60, natamycin 5 ppm, day 15): +; growth (+) or no growth (−) ([2]; T 60, natamycin 5 ppm, day 16): +; growth (+) or no growth (−) ([2]; T 60, natamycin 5 ppm, day 17): +; growth (+) or no growth (−) ([2]; T 60, natamycin 5 ppm, day 50): +; growth (+) or no growth (−) ([2]; T 60, natamycin 10 ppm, day 1): −; growth (+) or no growth (−) ([2]; T 60, natamycin 10 ppm, day 2): −; growth (+) or no growth (−) ([2]; T 60, natamycin 10 ppm, day 3): −; growth (+) or no growth (−) ([2]; T 60, natamycin 10 ppm, day 4): −; growth (+) or no growth (−) ([2]; T 60, natamycin 10 ppm, day 5): −; growth (+) or no growth (−) ([2]; T 60, natamycin 10 ppm, day 6): −; growth (+) or no growth (−) ([2]; T 60, natamycin 10 ppm, day 7): −; growth (+) or no growth (−) ([2]; T 60, natamycin 10 ppm, day 8): −; growth (+) or no growth (−) ([2]; T 60, natamycin 10 ppm, day 9): −; growth (+) or no growth (−) ([2]; T 60, natamycin 10 ppm, day 10): −; growth (+) or no growth (−) ([2]; T 60, natamycin 10 ppm, day 11): −; growth (+) or no growth (−) ([2]; T 60, natamycin 10 ppm, day 12): −; growth (+) or no growth (−) ([2]; T 60, natamycin 10 ppm, day 13): −; growth (+) or no growth (−) ([2]; T 60, natamycin 10 ppm, day 14): +; growth (+) or no growth (−) ([2]; T 60, natamycin 10 ppm, day 15): +; growth (+) or no growth (−) ([2]; T 60, natamycin 10 ppm, day 16): +; growth (+) or no growth (−) ([2]; T 60, natamycin 10 ppm, day 17): +; growth (+) or no growth (−) ([2]; T 60, natamycin 10 ppm, day 50): +; growth (+) or no growth (−) ([2]; T 65, natamycin 5 ppm, day 1): −; growth (+) or no growth (−) ([2]; T 65, natamycin 5 ppm, day 2): −; growth (+) or no growth (−) ([2]; T 65, natamycin 5 ppm, day 3): −; growth (+) or no growth (−) ([2]; T 65, natamycin 5 ppm, day 4): −; growth (+) or no growth (−) ([2]; T 65, natamycin 5 ppm, day 5): −; growth (+) or no growth (−) ([2]; T 65, natamycin 5 ppm, day 6): −; growth (+) or no growth (−) ([2]; T 65, natamycin 5 ppm, day 7): −; growth (+) or no growth (−) ([2]; T 65, natamycin 5 ppm, day 8): −; growth (+) or no growth (−) ([2]; T 65, natamycin 5 ppm, day 9): −; growth (+) or no growth (−) ([2]; T 65, natamycin 5 ppm, day 10): −; growth (+) or no growth (−) ([2]; T 65, natamycin 5 ppm, day 11): −; growth (+) or no growth (−) ([2]; T 65, natamycin 5 ppm, day 12): −; growth (+) or no growth (−) ([2]; T 65, natamycin 5 ppm, day 13): −; growth (+) or no growth (−) ([2]; T 65, natamycin 5 ppm, day 14): −; growth (+) or no growth (−) ([2]; T 65, natamycin 5 ppm, day 15): −; growth (+) or no growth (−) ([2]; T 65, natamycin 5 ppm, day 16): −; growth (+) or no growth (−) ([2]; T 65, natamycin 5 ppm, day 17): −; growth (+) or no growth (−) ([2]; T 65, natamycin 5 ppm, day 50): −; growth (+) or no growth (−) ([2]; T 65, natamycin 10 ppm, day 1): −; growth (+) or no growth (−) ([2]; T 65, natamycin 10 ppm, day 2): −; growth (+) or no growth (−) ([2]; T 65, natamycin 10 ppm, day 3): −; growth (+) or no growth (−) ([2]; T 65, natamycin 10 ppm, day 4): −; growth (+) or no growth (−) ([2]; T 65, natamycin 10 ppm, day 5): −; growth (+) or no growth (−) ([2]; T 65, natamycin 10 ppm, day 6): −; growth (+) or no growth (−) ([2]; T 65, natamycin 10 ppm, day 7): −; growth (+) or no growth (−) ([2]; T 65, natamycin 10 ppm, day 8): −; growth (+) or no growth (−) ([2]; T 65, natamycin 10 ppm, day 9): −; growth (+) or no growth (−) ([2]; T 65, natamycin 10 ppm, day 10): −; growth (+) or no growth (−) ([2]; T 65, natamycin 10 ppm, day 11): −; growth (+) or no growth (−) ([2]; T 65, natamycin 10 ppm, day 12): −; growth (+) or no growth (−) ([2]; T 65, natamycin 10 ppm, day 13): −; growth (+) or no growth (−) ([2]; T 65, natamycin 10 ppm, day 14): −; growth (+) or no growth (−) ([2]; T 65, natamycin 10 ppm, day 15): −; growth (+) or no growth (−) ([2]; T 65, natamycin 10 ppm, day 16): −; growth (+) or no growth (−) ([2]; T 65, natamycin 10 ppm, day 17): −; growth (+) or no growth (−) ([2]; T 65, natamycin 10 ppm, day 50): −; growth (+) or no growth (−) ([2]; T 70, natamycin 5 ppm, day 1): −; growth (+) or no growth (−) ([2]; T 70, natamycin 5 ppm, day 2): −; growth (+) or no growth (−) ([2]; T 70, natamycin 5 ppm, day 3): −; growth (+) or no growth (−) ([2]; T 70, natamycin 5 ppm, day 4): −; growth (+) or no growth (−) ([2]; T 70, natamycin 5 ppm, day 5): −; growth (+) or no growth (−) ([2]; T 70, natamycin 5 ppm, day 6): −; growth (+) or no growth (−) ([2]; T 70, natamycin 5 ppm, day 7): −; growth (+) or no growth (−) ([2]; T 70, natamycin 5 ppm, day 8): −; growth (+) or no growth (−) ([2]; T 70, natamycin 5 ppm, day 9): −; growth (+) or no growth (−) ([2]; T 70, natamycin 5 ppm, day 10): −; growth (+) or no growth (−) ([2]; T 70, natamycin 5 ppm, day 11): −; growth (+) or no growth (−) ([2]; T 70, natamycin 5 ppm, day 12): −; growth (+) or no growth (−) ([2]; T 70, natamycin 5 ppm, day 13): −; growth (+) or no growth (−) ([2]; T 70, natamycin 5 ppm, day 14): −; growth (+) or no growth (−) ([2]; T 70, natamycin 5 ppm, day 15): −; growth (+) or no growth (−) ([2]; T 70, natamycin 5 ppm, day 16): −; growth (+) or no growth (−) ([2]; T 70, natamycin 5 ppm, day 17): −; growth (+) or no growth (−) ([2]; T 70, natamycin 5 ppm, day 50): −; growth (+) or no growth (−) ([2]; T 70, natamycin 10 ppm, day 9): −; growth (+) or no growth (−) ([2]; T 70, natamycin 10 ppm, day 10): −; growth (+) or no growth (−) ([2]; T 70, natamycin 10 ppm, day 11): −; growth (+) or no growth (−) ([2]; T 70, natamycin 10 ppm, day 12): −; growth (+) or no growth (−) ([2]; T 70, natamycin 10 ppm, day 13): −; growth (+) or no growth (−) ([2]; T 70, natamycin 10 ppm, day 14): −; growth (+) or no growth (−) ([2]; T 70, natamycin 10 ppm, day 15): −; growth (+) or no growth (−) ([2]; T 70, natamycin 10 ppm, day 16): −; growth (+) or no growth (−) ([2]; T 70, natamycin 10 ppm, day 17): −; growth (+) or no growth (−) ([2]; T 70, natamycin 10 ppm, day 50): −
